Target: Gag-Pol polyprotein (Human immunodeficiency virus type 1 group M subtype B (isolate HXB2), UniProt P04585)
Assay: concentration-response of HIV-1 RNase H blockers – biochemical, probe assessment, dose response (AID 652)
Settings: pH 8; 23 °C

Row | SMILES | IC50 [µM]
1 | O=C(Nc1ccc2nc(-c3ccco3)c(-c3ccco3)nc2c1)N1CCCCCC1 | 0.953
2 | CCCCCC#CCC#CCC#CCC#CCCCC(=O)O | 0.794
3 | Cc1ccc2c(c1C)NC(C(=O)O)C1CC=CC21 (centres undefined) | 1.03
4 | CCCc1nc2ccccc2c(=O)n1N=Cc1ccc(O)c(O)c1 | 0.767
5 | N#Cc1cc(-c2ccccc2)nn1-c1ccccc1 | 0.876
6 | c1ccc(-c2ccc(C3=Nc4ncnn4C(c4ccco4)C3)cc2)cc1 (centres undefined) | 14.5
7 | O=C(CSc1nnc[nH]1)c1ccccc1 | 5.52
8 | Cc1cc(C)n2c(S)nnc2n1 | 8.1
9 | CCCCCn1c(SCCCC)nc2c1c(=O)[nH]c(=O)n2C | 2.48
10 | Cc1sc(-n2c(C)cc(C=Nn3cnnc3)c2C)c(C#N)c1C | 2.22
11 | COCCn1c(-c2ccc(-c3ccccc3Cl)o2)nc2c1c(=O)[nH]c(=O)n2CC(C)C | 4.55
12 | c1ccc2[nH]c(SN3CCOCC3)nc2c1 | 12.5
13 | CC(C)c1ccc2oc(-c3ccc(NC(=O)c4nnc[nH]4)cc3)nc2c1 | 5.64
14 | CN1CSC2=C(C#N)C(c3cccc(OCc4ccccc4)c3)CC(=O)N2C1 (centres undefined) | 10.6
15 | C=CCOc1ccc(CC2C(=O)N(C)C(=O)N(C)C2=O)cc1 [1,3-dimethyl-5-[(4-prop-2-enoxyphenyl)methyl]-1,3-diazinane-2,4,6-trione] | 2.61
16 | CCn1c(SCC(=O)c2ccc(O)c(O)c2)nnc1-c1ccccc1OC [1-(3,4-dihydroxyphenyl)-2-[[4-ethyl-5-(2-methoxyphenyl)-1,2,4-triazol-3-yl]sulfanyl]ethanone] | 2.36
17 | C=CCn1c(SCC(=O)c2ccc(O)c(O)c2)nnc1-c1ccccc1OC [1-(3,4-dihydroxyphenyl)-2-[[5-(2-methoxyphenyl)-4-prop-2-enyl-1,2,4-triazol-3-yl]sulfanyl]ethanone] | 2.57
18 | CCC1CCCCN1S(=O)(=O)c1ccc(S(=O)(=O)N2CCN(S(=O)(=O)CC)CC2)cc1 (centres undefined) [1-Ethanesulfonyl-4-[4-(2-ethyl-piperidine-1-sulfonyl)-benzenesulfonyl]-piperazine] | 12.3
19 | CC(C)c1nnc(NC(=O)c2c(O)n3c4c(cccc4c2=O)CCC3)s1 [1-Hydroxy-3-oxo-6,7-dihydro-3H,5H-pyrido[3,2,1-ij]quinoline-2-carboxylic acid (5-isopropyl-[1,3,4]thiadiazol-2-yl)-amide] | 14.9
20 | CCOC(=O)C1CCCN(C(=O)Cn2sc3nc(C)cc(C)c3c2=O)C1 (centres undefined) [1-[2-(3-keto-4,6-dimethyl-isothiazolo[5,4-b]pyridin-2-yl)acetyl]nipecotic acid ethyl ester] | 9.03
21 | c1ccc(Cc2nn3c(Cn4cnc5ccccc54)nnc3s2)cc1 [1-[(6-benzyl[1,2,4]triazolo[3,4-b][1,3,4]thiadiazol-3-yl)methyl]-1H-benzimidazole] | 2.2
22 | O=S(=O)(c1ccc(S(=O)(=O)N2CCN(C/C=C/c3ccccc3)CC2)cc1)N1CCCC1 [1-[(E)-3-phenylprop-2-enyl]-4-(4-pyrrolidin-1-ylsulfonylphenyl)sulfonyl-piperazine] | 12.2
23 | C=CCn1c(=O)c(C(=O)Nc2nnc(C)s2)c(O)c2ccccc21 [1-allyl-2-hydroxy-4-keto-N-(5-methyl-1,3,4-thiadiazol-2-yl)quinoline-3-carboxamide] | 16.8
24 | CCCCCn1c(=O)c(C(=O)NCc2ccncc2)c(O)c2ccccc21 [1-amyl-2-hydroxy-4-keto-N-(4-pyridylmethyl)quinoline-3-carboxamide] | 7.42
25 | c1ccc2c(c1)nnn2Cc1nnc2sc(-c3ccc4c(c3)OCCO4)nn12 [1-{[6-(2,3-dihydro-1,4-benzodioxin-6-yl)[1,2,4]triazolo[3,4-b][1,3,4]thiadiazol-3-yl]methyl}-1H-1,2,3-benzotriazole] | 1.69
26 | c1cncc(-c2nn3c(Cn4cnc5ccccc54)nnc3s2)c1 [1-{[6-(3-pyridinyl)[1,2,4]triazolo[3,4-b][1,3,4]thiadiazol-3-yl]methyl}-1H-benzimidazole] | 0.621
27 | O=C(Nc1ccc(N2CCOCC2)cc1)c1ccc2nc(-c3ccco3)c(-c3ccco3)nc2c1 [2,3-bis(2-furanyl)-N-[4-(4-morpholinyl)phenyl]-6-quinoxalinecarboxamide] | 22.6

Row | SMILES | IC50 [µM]
28 | Cc1nc(C)c(C(=O)Nc2nc3c(C)cccc3s2)o1 [2,4-dimethyl-N-(4-methyl-1,3-benzothiazol-2-yl)-1,3-oxazole-5-carboxamide] | 1.49
29 | CCOc1cc(C2C(C#N)C(=N)SC(=N)C2C#N)ccc1OCCN1CCOCC1 (centres undefined) [2,6-bis(azanyl)-4-[3-ethoxy-4-(2-morpholin-4-ylethoxy)phenyl]-4H-thiopyran-3,5-dicarbonitrile] | 31.5
30 | N#CC1C(=N)SC(=N)C(C#N)C1c1ccnc2ccccc12 (centres undefined) [2,6-bis(azanyl)-4-quinolin-4-yl-4H-thiopyran-3,5-dicarbonitrile] | 13.7
31 | CCCc1nnc(NC(=O)CN2C(=O)c3ccccc3S2(=O)=O)s1 [2-(1,1-dioxido-3-oxo-1,2-benzisothiazol-2(3H)-yl)-N-(5-propyl-1,3,4-thiadiazol-2-yl)acetamide] | 3.23
32 | O=C(NCc1ccco1)c1cccnc1-c1nc2ccccc2s1 [2-(1,3-benzothiazol-2-yl)-N-(2-furanylmethyl)-3-pyridinecarboxamide] | 3.26
33 | Cc1nn2c(-c3cccc(NC(=O)CSc4nc5ccccc5o4)c3)nnc2c2ccccc12 [2-(1,3-benzoxazol-2-ylsulfanyl)-N-[3-(6-methyl-[1,2,4]triazolo[3,4-a]phthalazin-3-yl)phenyl]acetamide] | 3.71
34 | CCOc1ccc(-n2c(=O)c3c4c(sc3n(CC(=O)NCc3ccco3)c2=O)CCC4)cc1 [2-(1,3-diketo-2-p-phenetyl-7,8-dihydro-6H-cyclopenta[2,3]thieno[2,4-b]pyrimidin-4-yl)-N-(2-furfuryl)acetamide] | 22.4
35 | O=C1CC(c2ccccc2)Cc2nc(N3CCc4ccccc43)ncc21 (centres undefined) [2-(2,3-dihydroindol-1-yl)-7-phenyl-7,8-dihydro-6H-quinazolin-5-one] | 5.87
36 | Cc1cccc(OCC(=O)Nc2cccc(-c3nnc(-c4ccccc4)o3)c2)c1C [2-(2,3-dimethylphenoxy)-N-[3-(5-phenyl-1,3,4-oxadiazol-2-yl)phenyl]acetamide] | 3.92
37 | O=c1c(O)c(-c2ccc(O)cc2O)oc2cc(O)cc(O)c12 [2-(2,4-dihydroxyphenyl)-3,5,7-trihydroxychromen-4-one] | 2.11
38 | Cc1cc(NC(=O)CSc2nc(C3CC3)nc3sc4c(c23)CCC(C)C4)no1 (centres undefined) [2-(2-Cyclopropyl-7-methyl-5,6,7,8-tetrahydro-benzo[4,5]thieno[2,3-d]pyrimidin-4-ylsulfanyl)-N-(5-methyl-isoxazol-3-yl)-acetamide] | 5.41
39 | O=C(Cn1c(=O)oc2cc(S(=O)(=O)N3CCCC3)ccc21)NC1CCCc2ccccc21 (centres undefined) [2-(2-keto-6-pyrrolidinosulfonyl-1,3-benzoxazol-3-yl)-N-tetralin-1-yl-acetamide] | 19.8
40 | COCCSc1ccccc1C(=O)Nc1cc(C)on1 [2-(2-methoxyethylsulfanyl)-N-(5-methyl-1,2-oxazol-3-yl)benzamide] | 10.8
41 | O=c1c2ccccc2sn1-c1cc(S(=O)(=O)N2CCOCC2)ccc1N1CCOCC1 [2-(2-morpholin-4-yl-5-morpholin-4-ylsulfonyl-phenyl)-1,2-benzothiazol-3-one] | 0.579
42 | Cc1cc(C)cc(OCC(=O)Nc2nonc2NC(=O)COc2cc(C)cc(C)c2)c1 [2-(3,5-dimethylphenoxy)-N-[4-[2-(3,5-dimethylphenoxy)ethanoylamino]-1,2,5-oxadiazol-3-yl]ethanamide] | 1.89
43 | COC(=O)c1sc(N2C(=O)c3oc4ccccc4c(=O)c3C2c2cccs2)nc1C (centres undefined) [2-(3,9-dioxo-1-thiophen-2-yl-1H-[1]benzopyrano[2,3-c]pyrrol-2-yl)-4-methyl-5-thiazolecarboxylic acid methyl ester] | 5.25
44 | Cc1cccc(NC(=O)Cn2c(C)c(C#N)c3ccccc32)c1C [2-(3-Cyano-2-methyl-indol-1-yl)-N-(2,3-dimethyl-phenyl)-acetamide] | 29
45 | Cc1cc(C)c2c(=O)n(CC(=O)NCCCN3CCOCC3)sc2n1 [2-(3-keto-4,6-dimethyl-isothiazolo[5,4-b]pyridin-2-yl)-N-(3-morpholinopropyl)acetamide] | 9.4
46 | O=C(COc1ccc(Br)cc1)Nc1ccc(-c2nnc(-c3ccco3)o2)cc1 [2-(4-bromanylphenoxy)-N-[4-[5-(furan-2-yl)-1,3,4-oxadiazol-2-yl]phenyl]ethanamide] | 6.33
47 | COc1ccc(CC(=O)Nc2ccc(-c3noc(-c4cccc(OC)c4)n3)cc2)cc1 [2-(4-methoxyphenyl)-N-[4-[5-(3-methoxyphenyl)-1,2,4-oxadiazol-3-yl]phenyl]acetamide] | 3.07
48 | Cc1ccnc(-n2sc3ccccc3c2=O)n1 [2-(4-methyl-2-pyrimidinyl)-1,2-benzothiazol-3-one] | 1.17
49 | Cc1ccc(-n2sc3ccccc3c2=O)cc1S(=O)(=O)N1CCCCC1 [2-(4-methyl-3-piperidin-1-ylsulfonyl-phenyl)-1,2-benzothiazol-3-one] | 0.164
50 | Cc1sc2nc(SCC(=O)NCc3ccco3)n(CCc3ccccc3)c(=O)c2c1C [2-(5,6-Dimethyl-4-oxo-3-phenethyl-3,4-dihydro-thieno[2,3-d]pyrimidin-2-ylsulfanyl)-N-furan-2-ylmethyl-acetamide] | 3.86
51 | C=CCn1c(SCC(=O)NC(=O)NCc2ccco2)nc2sc(C)c(C)c2c1=O [2-(5,6-dimethyl-4-oxidanylidene-3-prop-2-enyl-thieno[2,3-d]pyrimidin-2-yl)sulfanyl-N-(furan-2-ylmethylcarbamoyl)ethanamide] | 19
52 | O=C(CSc1nc2ccccc2c2nc3ccccc3n12)NCc1ccco1 [2-(6-benzimidazolo[1,2-c]quinazolinylthio)-N-(2-furanylmethyl)acetamide] | 8.73
53 | CCOC(=O)C(C(C)=O)c1c(Br)c(O)c(O)c2c(C(=O)c3ccc(C)cc3)coc12 (centres undefined) [2-(6-bromo-4,5-dihydroxy-3-p-toluoyl-benzofuran-7-yl)-3-keto-butyric acid ethyl ester] | 0.421
54 | CC1CCc2c(sc(NC(=O)c3ccc(Cn4cc(Br)cn4)o3)c2C(N)=O)C1 (centres undefined) [2-({5-[(4-bromo-1H-pyrazol-1-yl)methyl]-2-furoyl}amino)-6-methyl-4,5,6,7-tetrahydro-1-benzothiophene-3-carboxamide] | 3.19

From BindingDB's records for doi:10.7270/Q2H70D5W (University of Pittsburgh, 2007)
